According to ChEMBL document CHEMBL4382229, “Benzofuran derivatives and their anti-tubercular, anti-bacterial activities” (Eur J Med Chem, 2019):
In brackets after ≈: the same amount, converted by molar mass.

Legend:
Assay type in all cases: functional
Bacillus subtilis [1] = assay: Antibacterial activity against Bacillus subtilis NCIM 2439 assessed as zone of inhibition at 1 ug/ml after 24 hrs by agar diffusion method; conditions: NCIM 2439, 24 h, read-out: IZ
Staphylococcus aureus [2] = assay: Antibacterial activity against Staphylococcus aureus NCIM 2079 assessed as zone of inhibition at 1 ug/ml after 24 hrs by agar diffusion method; conditions: NCIM 2079, 24 h, read-out: IZ
Escherichia coli [3] = assay: Antibacterial activity against Escherichia coli NCIM 2064 assessed as zone of inhibition at 1 ug/ml after 24 hrs by agar diffusion method; conditions: NCIM 2064, 24 h, read-out: IZ
Pseudomonas aeruginosa [4] = assay: Antibacterial activity against Pseudomonas aeruginosa NCIB 8650 assessed as zone of inhibition at 1 ug/ml after 24 hrs by agar diffusion method; conditions: NCIB 8650, 24 h, read-out: IZ
Bacillus subtilis [5] = assay: Antibacterial activity against Bacillus subtilis MTCC 1134 after 24 hrs by broth dilution method; conditions: MTCC 1134, 24 h
Escherichia coli [6] = assay: Antibacterial activity against Escherichia coli MTCC 1559 after 24 hrs by broth dilution method; conditions: MTCC 1559, 24 h
Pseudomonas aeruginosa [7] = assay: Antibacterial activity against Pseudomonas aeruginosa MTCC 1034 after 24 hrs by broth dilution method; conditions: MTCC 1034, 24 h
Escherichia coli [8] = assay: Antibacterial activity against Escherichia coli by broth dilution method
Pseudomonas aeruginosa [9] = assay: Antibacterial activity against Pseudomonas aeruginosa by broth dilution method
Staphylococcus aureus [10] = assay: Antibacterial activity against Staphylococcus aureus assessed as zone of inhibition at 1 mg/ml after 32 hrs by agar-well diffusion method; conditions: read-out: IZ
Klebsiella pneumoniae = assay: Antibacterial activity against Klebsiella pneumoniae assessed as zone of inhibition at 1 mg/ml after 32 hrs by agar-well diffusion method; conditions: read-out: IZ
Pseudomonas aeruginosa [11] = assay: Antibacterial activity against Pseudomonas aeruginosa assessed as zone of inhibition at 1 mg/ml after 32 hrs by agar-well diffusion method; conditions: read-out: IZ
Escherichia coli [12] = assay: Antibacterial activity against Escherichia coli assessed as zone of inhibition at 1 mg/ml after 32 hrs by agar-well diffusion method; conditions: read-out: IZ
Staphylococcus aureus [13] = assay: Antibacterial activity against Staphylococcus aureus MTCC 96 assessed as zone of inhibition at 100 ug/ml by disc diffusion method; conditions: read-out: IZ
Streptococcus pyogenes = assay: Antibacterial activity against Streptococcus pyogenes MTCC 442 assessed as zone of inhibition at 100 ug/ml by disc diffusion method; conditions: read-out: IZ
Escherichia coli [14] = assay: Antibacterial activity against Escherichia coli MTCC 443 assessed as zone of inhibition at 100 ug/ml by disc diffusion method; conditions: read-out: IZ
Pseudomonas aeruginosa [15] = assay: Antibacterial activity against Pseudomonas aeruginosa MTCC 424 assessed as zone of inhibition at 100 ug/ml by disc diffusion method; conditions: read-out: IZ

`COC(=O)c1cc(-c2cc3cc(Br)ccc3o2)n(-c2ccccc2)n1` showed a zone of inhibition at 1 µg/mL (Bacillus subtilis [1]) of 9 to 30 mm, a zone of inhibition at 1 µg/mL (Staphylococcus aureus [2]) of 9 to 30 mm and a zone of inhibition at 1 µg/mL (Escherichia coli [3]) of 9 to 30 mm. For the same molecule, the zone of inhibition at 1 µg/mL (Pseudomonas aeruginosa [4]) was 9 to 30 mm.

In the case of `Cc1ccc(-c2cc(-c3cc4ccccc4o3)nc(O)n2)s1`, the MIC (Bacillus subtilis [5]) is reported as 4.32 to 18.4 µg/mL (≈ 14 to 59.8 µM), the MIC (Escherichia coli [6]) is reported as 4.32 to 18.4 µg/mL (≈ 14 to 59.8 µM) and the MIC (Pseudomonas aeruginosa [7]) is reported as 4.32 to 18.4 µg/mL (≈ 14 to 59.8 µM).

In the case of `CCOC(=O)c1cc(-c2oc3ccc(Cl)cc3c2C)on1`, the zone of inhibition at 1 µg/mL (Bacillus subtilis [1]) is reported as 9 to 30 mm, the zone of inhibition at 1 µg/mL (Staphylococcus aureus [2]) is reported as 9 to 30 mm and the zone of inhibition at 1 µg/mL (Escherichia coli [3]) is reported as 9 to 30 mm. The zone of inhibition at 1 µg/mL (Pseudomonas aeruginosa [4]) was 9 to 30 mm.

Molecule `Cc1ccc2occ(-c3cc4cc(Br)ccc4oc3=O)c2c1` has an MIC (Escherichia coli [8]) of 6.25 to 100 µg/mL (≈ 17.6 to 282 µM) and an MIC (Pseudomonas aeruginosa [9]) of 6.25 to 100 µg/mL (≈ 17.6 to 282 µM).

Molecule `Brc1ccc2oc(-c3cn4c(-c5ccccc5)csc4n3)cc2c1` has a zone of inhibition at 1000 µg/mL (Staphylococcus aureus [10]) of 15 to 20 mm, a zone of inhibition at 1000 µg/mL (Klebsiella pneumoniae) of 15 to 20 mm and a zone of inhibition at 1000 µg/mL (Pseudomonas aeruginosa [11]) of 15 to 20 mm. The zone of inhibition at 1000 µg/mL (Escherichia coli [12]) was 15 to 20 mm.

`c1ccc(-c2csc3nc(-c4cc5ccccc5o4)cn23)cc1` showed a zone of inhibition at 1000 µg/mL (Staphylococcus aureus [10]) of 6 to 23 mm, a zone of inhibition at 1000 µg/mL (Klebsiella pneumoniae) of 6 to 23 mm and a zone of inhibition at 1000 µg/mL (Pseudomonas aeruginosa [11]) of 6 to 23 mm. It also gave a zone of inhibition at 1000 µg/mL (Escherichia coli [12]) of 6 to 23 mm.

For `Brc1ccc2oc(-c3csc4nc(-c5cc6ccccc6o5)cn34)cc2c1`, the zone of inhibition at 1000 µg/mL (Staphylococcus aureus [10]) was 6 to 23 mm, the zone of inhibition at 1000 µg/mL (Klebsiella pneumoniae) was 6 to 23 mm and the zone of inhibition at 1000 µg/mL (Pseudomonas aeruginosa [11]) was 6 to 23 mm. It also gave a zone of inhibition at 1000 µg/mL (Escherichia coli [12]) of 6 to 23 mm.

`COc1ccc2occ(-c3cc4ccccc4oc3=O)c2c1` showed an MIC (Escherichia coli [8]) of 6.25 to 100 µg/mL (≈ 21.4 to 342 µM) and an MIC (Pseudomonas aeruginosa [9]) of 6.25 to 100 µg/mL (≈ 21.4 to 342 µM).

Molecule `CCOC(=O)c1cc(-c2cc3ccccc3o2)on1` has a zone of inhibition at 1 µg/mL (Bacillus subtilis [1]) of 9 to 30 mm, a zone of inhibition at 1 µg/mL (Staphylococcus aureus [2]) of 9 to 30 mm and a zone of inhibition at 1 µg/mL (Escherichia coli [3]) of 9 to 30 mm. It also gave a zone of inhibition at 1 µg/mL (Pseudomonas aeruginosa [4]) of 9 to 30 mm.

`COC(=O)c1cc(-c2cc3cc(Br)ccc3o2)[nH]n1` showed a zone of inhibition at 1 µg/mL (Bacillus subtilis [1]) of 9 to 30 mm, a zone of inhibition at 1 µg/mL (Staphylococcus aureus [2]) of 9 to 30 mm and a zone of inhibition at 1 µg/mL (Escherichia coli [3]) of 9 to 30 mm. The zone of inhibition at 1 µg/mL (Pseudomonas aeruginosa [4]) was 9 to 30 mm.

Work on `Fc1ccc(-c2csc3nc(-c4cc5cc(Br)ccc5o4)cn23)cc1` yielded a zone of inhibition at 1000 µg/mL (Staphylococcus aureus [10]) of 6 to 23 mm, a zone of inhibition at 1000 µg/mL (Klebsiella pneumoniae) of 6 to 23 mm and a zone of inhibition at 1000 µg/mL (Pseudomonas aeruginosa [11]) of 6 to 23 mm. For the same molecule, the zone of inhibition at 1000 µg/mL (Escherichia coli [12]) was 6 to 23 mm.

`Cc1ccc2c(-c3cc4ccccc4oc3=O)coc2c1` gave an MIC (Escherichia coli [8]) of 6.25 to 100 µg/mL (≈ 22.6 to 362 µM) and an MIC (Pseudomonas aeruginosa [9]) of 6.25 to 100 µg/mL (≈ 22.6 to 362 µM).

Work on `Cc1ccc(-c2cc(-c3cc4cc(Br)ccc4o3)nc(O)n2)s1` yielded an MIC (Bacillus subtilis [5]) of 4.32 to 18.4 µg/mL (≈ 11.2 to 47.6 µM), an MIC (Escherichia coli [6]) of 4.32 to 18.4 µg/mL (≈ 11.2 to 47.6 µM) and an MIC (Pseudomonas aeruginosa [7]) of 4.32 to 18.4 µg/mL (≈ 11.2 to 47.6 µM).

`Cc1cc(NS(C)(=O)=O)c2oc(COC(=O)NCc3ccccc3)cc2c1` showed a zone of inhibition at 100 µg/mL (Staphylococcus aureus [13]) of 19 to 28 mm, a zone of inhibition at 100 µg/mL (Streptococcus pyogenes) of 19 to 28 mm and a zone of inhibition at 100 µg/mL (Escherichia coli [14]) of 19 to 28 mm. The zone of inhibition at 100 µg/mL (Pseudomonas aeruginosa [15]) was 19 to 28 mm.

With `c1ccc2oc(-c3cn4c(-c5cc6ccccc6o5)csc4n3)cc2c1` the zone of inhibition at 1000 µg/mL (Staphylococcus aureus [10]) was 6 to 23 mm, the zone of inhibition at 1000 µg/mL (Klebsiella pneumoniae) was 6 to 23 mm and the zone of inhibition at 1000 µg/mL (Pseudomonas aeruginosa [11]) was 6 to 23 mm. It also gave a zone of inhibition at 1000 µg/mL (Escherichia coli [12]) of 6 to 23 mm.

Molecule `Brc1ccc2oc(-c3cn4c(-c5cc6cc(Br)ccc6o5)csc4n3)cc2c1` has a zone of inhibition at 1000 µg/mL (Staphylococcus aureus [10]) of 6 to 23 mm, a zone of inhibition at 1000 µg/mL (Klebsiella pneumoniae) of 6 to 23 mm and a zone of inhibition at 1000 µg/mL (Pseudomonas aeruginosa [11]) of 6 to 23 mm. For the same molecule, the zone of inhibition at 1000 µg/mL (Escherichia coli [12]) was 6 to 23 mm.

`Cc1ccc2c(-c3cc4cc(Br)ccc4oc3=O)coc2c1` was tested, and the MIC (Escherichia coli [8]) was 6.25 to 100 µg/mL (≈ 17.6 to 282 µM) and the MIC (Pseudomonas aeruginosa [9]) was 6.25 to 100 µg/mL (≈ 17.6 to 282 µM).

Molecule `Oc1nc(-c2cc3cc(Br)ccc3o2)cc(-c2cccs2)n1` has an MIC (Bacillus subtilis [5]) of 4.32 to 18.4 µg/mL (≈ 11.6 to 49.4 µM), an MIC (Escherichia coli [6]) of 4.32 to 18.4 µg/mL (≈ 11.6 to 49.4 µM) and an MIC (Pseudomonas aeruginosa [7]) of 4.32 to 18.4 µg/mL (≈ 11.6 to 49.4 µM).

In the case of `CCOC(=O)c1cc(-c2cc3cc(Br)ccc3o2)on1`, the zone of inhibition at 1 µg/mL (Bacillus subtilis [1]) is reported as 9 to 30 mm, the zone of inhibition at 1 µg/mL (Staphylococcus aureus [2]) is reported as 9 to 30 mm and the zone of inhibition at 1 µg/mL (Escherichia coli [3]) is reported as 9 to 30 mm. For the same molecule, the zone of inhibition at 1 µg/mL (Pseudomonas aeruginosa [4]) was 9 to 30 mm.

`Brc1ccc2oc(-c3cn4c(-c5cc6ccccc6o5)csc4n3)cc2c1` was tested, and the zone of inhibition at 1000 µg/mL (Staphylococcus aureus [10]) was 6 to 23 mm, the zone of inhibition at 1000 µg/mL (Klebsiella pneumoniae) was 6 to 23 mm and the zone of inhibition at 1000 µg/mL (Pseudomonas aeruginosa [11]) was 6 to 23 mm. It also gave a zone of inhibition at 1000 µg/mL (Escherichia coli [12]) of 6 to 23 mm.

`CCOC(=O)c1cc(-c2oc3c(Cl)cc(Cl)cc3c2C)on1` gave a zone of inhibition at 1 µg/mL (Bacillus subtilis [1]) of 9 to 30 mm, a zone of inhibition at 1 µg/mL (Staphylococcus aureus [2]) of 9 to 30 mm and a zone of inhibition at 1 µg/mL (Escherichia coli [3]) of 9 to 30 mm. The zone of inhibition at 1 µg/mL (Pseudomonas aeruginosa [4]) was 9 to 30 mm.

For `COC(=O)c1cc(-c2oc3c(Cl)cc(Cl)cc3c2C)n(C(N)=O)n1`, the zone of inhibition at 1 µg/mL (Bacillus subtilis [1]) was 9 to 30 mm, the zone of inhibition at 1 µg/mL (Staphylococcus aureus [2]) was 9 to 30 mm and the zone of inhibition at 1 µg/mL (Escherichia coli [3]) was 9 to 30 mm. For the same molecule, the zone of inhibition at 1 µg/mL (Pseudomonas aeruginosa [4]) was 9 to 30 mm.

In the case of `Sc1nc(-c2cc3cc(Br)ccc3o2)cc(-c2cccs2)n1`, the MIC (Bacillus subtilis [5]) is reported as 4.32 to 18.4 µg/mL (≈ 11.1 to 47.4 µM), the MIC (Escherichia coli [6]) is reported as 4.32 to 18.4 µg/mL (≈ 11.1 to 47.4 µM) and the MIC (Pseudomonas aeruginosa [7]) is reported as 4.32 to 18.4 µg/mL (≈ 11.1 to 47.4 µM).

`O=c1oc2ccccc2cc1-c1coc2c1ccc1ccccc12` gave an MIC (Escherichia coli [8]) of 6.25 to 100 µg/mL (≈ 20 to 320 µM) and an MIC (Pseudomonas aeruginosa [9]) of 6.25 to 100 µg/mL (≈ 20 to 320 µM).

`Nc1nc(-c2cc3ccccc3o2)cc(-c2cccs2)n1` showed an MIC (Bacillus subtilis [5]) of 4.32 to 18.4 µg/mL (≈ 14.7 to 62.9 µM), an MIC (Escherichia coli [6]) of 4.32 to 18.4 µg/mL (≈ 14.7 to 62.9 µM) and an MIC (Pseudomonas aeruginosa [7]) of 4.32 to 18.4 µg/mL (≈ 14.7 to 62.9 µM).
